Data: ChEMBL document CHEMBL3217594, “Structureactivity relationships of methyl-lysine reader antagonists” (Medchemcomm, 2012)
Activity calls are given as the source filed them. The calls are words filed in the database; no cut-off is given here.

How the values were obtained:
[1] = target: MBT domain-containing protein 1 (Homo sapiens, UniProt Q05BQ5); assay: Antagonist activity at MBTD1 (unknown origin) assessed as inhibition of MBTD1/biotinylated H4K20Me1 peptide interaction at 30 uM after 30 mins by AlphaScreen assay
Chain of MBT domain-containing protein 1 (Q05BQ5 whole entry, the tested form may be a part): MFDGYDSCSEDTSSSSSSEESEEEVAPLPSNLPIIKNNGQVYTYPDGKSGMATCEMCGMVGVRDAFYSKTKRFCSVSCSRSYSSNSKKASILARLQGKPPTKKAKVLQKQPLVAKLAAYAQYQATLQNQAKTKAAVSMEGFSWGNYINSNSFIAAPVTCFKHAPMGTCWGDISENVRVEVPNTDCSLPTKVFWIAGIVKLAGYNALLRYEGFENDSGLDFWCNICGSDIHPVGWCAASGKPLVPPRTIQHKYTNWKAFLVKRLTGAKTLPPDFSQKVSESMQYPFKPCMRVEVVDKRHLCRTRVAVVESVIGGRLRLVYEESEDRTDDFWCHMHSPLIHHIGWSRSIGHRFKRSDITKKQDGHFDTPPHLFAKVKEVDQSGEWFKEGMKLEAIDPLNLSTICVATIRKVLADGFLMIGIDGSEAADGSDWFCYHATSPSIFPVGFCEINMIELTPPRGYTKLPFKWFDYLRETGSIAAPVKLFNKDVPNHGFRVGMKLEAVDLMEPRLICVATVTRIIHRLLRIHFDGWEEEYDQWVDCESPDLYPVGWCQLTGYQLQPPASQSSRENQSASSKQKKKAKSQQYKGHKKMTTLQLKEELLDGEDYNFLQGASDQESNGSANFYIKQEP

[2] = target: T1, Lethal(3)malignant brain tumor-like protein 3 (Homo sapiens) (UniProt Q96JM7); assay: Antagonist activity at His-tagged L3MBTL3 (unknown origin) assessed as inhibition of L3MBTL3/biotinylated H4K20Me2 peptide interaction at 30 uM after 30 mins by AlphaScreen assay
T1 sequence (whole entry): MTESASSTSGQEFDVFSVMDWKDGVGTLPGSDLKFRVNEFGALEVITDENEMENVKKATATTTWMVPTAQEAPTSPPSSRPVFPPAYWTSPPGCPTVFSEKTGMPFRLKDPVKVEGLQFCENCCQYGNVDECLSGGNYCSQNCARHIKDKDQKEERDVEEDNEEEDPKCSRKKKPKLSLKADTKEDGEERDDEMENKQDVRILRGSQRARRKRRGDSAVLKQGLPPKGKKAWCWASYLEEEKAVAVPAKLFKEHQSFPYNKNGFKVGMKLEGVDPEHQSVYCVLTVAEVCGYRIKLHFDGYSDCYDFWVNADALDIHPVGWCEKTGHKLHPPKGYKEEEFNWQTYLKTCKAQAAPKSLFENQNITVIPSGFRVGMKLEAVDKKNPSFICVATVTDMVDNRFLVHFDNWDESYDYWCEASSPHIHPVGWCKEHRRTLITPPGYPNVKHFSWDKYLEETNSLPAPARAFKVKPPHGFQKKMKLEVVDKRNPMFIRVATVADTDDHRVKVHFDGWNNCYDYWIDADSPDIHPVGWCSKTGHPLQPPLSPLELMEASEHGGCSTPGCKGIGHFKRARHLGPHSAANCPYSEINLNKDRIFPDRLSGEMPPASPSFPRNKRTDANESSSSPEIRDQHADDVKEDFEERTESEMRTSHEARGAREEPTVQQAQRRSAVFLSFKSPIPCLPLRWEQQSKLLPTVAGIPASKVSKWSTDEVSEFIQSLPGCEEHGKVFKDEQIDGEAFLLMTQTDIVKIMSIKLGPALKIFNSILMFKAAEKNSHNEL

[3] = target: TP53-binding protein 1 (Homo sapiens) (UniProt Q12888); assay: Effect on GST-fused 53BP1 Tudor domain (unknown origin)/biotinylated H4K20Me1 peptide interaction assessed as binding of 53BP1 to H4K20Me1 at 25 uM by pull down assay based western blot analysis
Chain of TP53-binding protein 1 (Homo sapiens) (Q12888 whole entry, the tested form may be a part): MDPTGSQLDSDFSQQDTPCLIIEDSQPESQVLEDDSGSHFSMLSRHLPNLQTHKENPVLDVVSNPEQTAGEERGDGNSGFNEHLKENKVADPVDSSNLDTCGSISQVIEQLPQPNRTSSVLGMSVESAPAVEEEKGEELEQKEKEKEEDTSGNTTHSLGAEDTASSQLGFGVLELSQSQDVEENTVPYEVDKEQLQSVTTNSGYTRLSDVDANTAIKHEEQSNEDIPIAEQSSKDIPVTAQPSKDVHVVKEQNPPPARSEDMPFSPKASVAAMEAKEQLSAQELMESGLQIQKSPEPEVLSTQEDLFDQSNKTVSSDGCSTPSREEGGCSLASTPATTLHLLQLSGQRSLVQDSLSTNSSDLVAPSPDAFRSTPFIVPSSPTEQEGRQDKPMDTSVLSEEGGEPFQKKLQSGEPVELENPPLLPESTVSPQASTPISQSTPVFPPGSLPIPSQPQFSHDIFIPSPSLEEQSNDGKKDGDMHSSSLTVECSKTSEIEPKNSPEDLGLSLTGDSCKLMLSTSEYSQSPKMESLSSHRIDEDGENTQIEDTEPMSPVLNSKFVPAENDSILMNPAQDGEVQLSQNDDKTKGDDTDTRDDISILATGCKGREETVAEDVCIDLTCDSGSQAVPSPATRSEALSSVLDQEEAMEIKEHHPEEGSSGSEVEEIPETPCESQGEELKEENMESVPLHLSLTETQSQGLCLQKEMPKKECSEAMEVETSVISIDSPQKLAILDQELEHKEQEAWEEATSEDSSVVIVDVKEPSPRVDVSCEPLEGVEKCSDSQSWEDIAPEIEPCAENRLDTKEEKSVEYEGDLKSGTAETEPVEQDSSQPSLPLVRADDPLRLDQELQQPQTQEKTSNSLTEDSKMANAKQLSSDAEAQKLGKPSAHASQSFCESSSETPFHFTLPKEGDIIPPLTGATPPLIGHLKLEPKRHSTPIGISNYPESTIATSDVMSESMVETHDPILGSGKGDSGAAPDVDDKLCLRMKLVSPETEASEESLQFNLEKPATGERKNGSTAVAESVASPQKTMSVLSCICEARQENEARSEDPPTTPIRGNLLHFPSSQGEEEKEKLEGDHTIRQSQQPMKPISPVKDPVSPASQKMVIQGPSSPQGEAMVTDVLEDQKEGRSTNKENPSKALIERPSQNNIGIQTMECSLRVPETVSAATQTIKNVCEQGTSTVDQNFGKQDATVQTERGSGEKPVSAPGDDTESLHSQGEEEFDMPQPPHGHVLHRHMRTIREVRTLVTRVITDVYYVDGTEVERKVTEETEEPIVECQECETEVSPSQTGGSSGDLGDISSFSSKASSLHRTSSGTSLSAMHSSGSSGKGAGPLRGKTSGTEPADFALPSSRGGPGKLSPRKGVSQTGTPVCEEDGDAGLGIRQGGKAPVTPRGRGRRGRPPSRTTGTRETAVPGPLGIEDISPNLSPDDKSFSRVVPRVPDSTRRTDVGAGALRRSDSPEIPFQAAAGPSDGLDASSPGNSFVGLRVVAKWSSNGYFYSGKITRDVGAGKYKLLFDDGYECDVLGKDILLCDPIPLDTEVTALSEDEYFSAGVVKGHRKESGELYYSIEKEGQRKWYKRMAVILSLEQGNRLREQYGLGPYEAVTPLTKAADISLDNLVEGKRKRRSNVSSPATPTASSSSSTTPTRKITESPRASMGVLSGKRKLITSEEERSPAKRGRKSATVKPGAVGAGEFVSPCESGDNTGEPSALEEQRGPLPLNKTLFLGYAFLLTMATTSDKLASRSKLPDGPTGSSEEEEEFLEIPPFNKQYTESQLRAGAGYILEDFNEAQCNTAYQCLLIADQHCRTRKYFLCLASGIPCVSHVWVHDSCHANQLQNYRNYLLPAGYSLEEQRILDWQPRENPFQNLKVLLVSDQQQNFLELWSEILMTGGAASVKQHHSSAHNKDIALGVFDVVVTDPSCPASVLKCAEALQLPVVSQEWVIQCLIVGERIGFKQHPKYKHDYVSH

[4] = target: TP53-binding protein 1 (Homo sapiens) (UniProt Q12888); assay: Effect on GST-fused 53BP1 Tudor domain (unknown origin)/biotinylated H4K20Me1 peptide interaction assessed as binding of 53BP1 to H4K20Me1 at 5 uM by pull down assay based western blot analysis
[5] = test system: T2, Lethal(3)malignant brain tumor-like protein 1 (Homo sapiens), Q9Y468 [D355N]; conditions: 5 to 25 uM
T2 sequence (whole entry): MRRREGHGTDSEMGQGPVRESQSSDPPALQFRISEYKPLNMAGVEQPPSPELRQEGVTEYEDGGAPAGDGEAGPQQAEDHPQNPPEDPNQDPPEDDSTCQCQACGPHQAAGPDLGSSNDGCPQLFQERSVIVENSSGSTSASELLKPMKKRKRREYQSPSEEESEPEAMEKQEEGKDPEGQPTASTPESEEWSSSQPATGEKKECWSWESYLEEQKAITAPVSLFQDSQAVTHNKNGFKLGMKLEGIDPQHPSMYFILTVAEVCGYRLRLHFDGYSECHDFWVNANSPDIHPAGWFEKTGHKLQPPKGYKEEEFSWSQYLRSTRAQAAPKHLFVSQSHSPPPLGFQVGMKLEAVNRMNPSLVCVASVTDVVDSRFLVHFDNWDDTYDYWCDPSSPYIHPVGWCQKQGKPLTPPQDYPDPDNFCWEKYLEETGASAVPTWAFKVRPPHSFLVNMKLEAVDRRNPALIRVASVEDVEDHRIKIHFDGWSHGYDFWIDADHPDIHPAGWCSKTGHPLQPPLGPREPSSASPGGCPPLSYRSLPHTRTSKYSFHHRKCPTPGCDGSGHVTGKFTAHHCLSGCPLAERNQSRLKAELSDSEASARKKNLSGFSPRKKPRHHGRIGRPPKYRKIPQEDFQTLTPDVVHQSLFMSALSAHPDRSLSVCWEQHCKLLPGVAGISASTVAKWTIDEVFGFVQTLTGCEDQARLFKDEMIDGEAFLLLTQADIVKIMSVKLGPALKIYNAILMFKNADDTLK
Description: Inhibition of GST-fused L3MBTL1 3xMBT-D355N mutant (unknown origin)/biotinylated H4K20Me1 peptide interaction at 5 to 25 uM by pull down assay based western blot analysis

Row | Compound | inhibition [1] | inhibition [2] | Activity [3] | Activity [4] | inhibition [5]
1 | CN1CCCC1C1CCN(C(=O)c2cccc(Br)c2)CC1 (centres undefined) | 32% |  |  |  | 
2 | CN(C)C1CCN(C(=O)c2cccc(Br)c2)CC1 | 1% | 18% |  |  | 
3 | O=C(c1cccc(Br)c1)N1CCN(C2CCCC2)CC1 | inactive | 5% |  |  | 
4 | CC1CCCN1C1CCN(C(=O)c2cccc(Br)c2)CC1 (centres undefined) | 16% | 25% |  |  | 
5 | CNC1CCN(C(=O)c2cccc(Br)c2)CC1 | 3% | 9% |  |  | 
6 | O=C(c1cccc(Br)c1)N1CCC(N2CCCC2)C1 (centres undefined) | 13% | 40% |  |  | 
7 | O=C(c1cccc(Br)c1)N1CCC(N2CCCCC2)CC1 |  | 21% | 91% | 120% | inactive
8 | C[N+]1(C2CCN(C(=O)c3cccc(Br)c3)CC2)CCCC1 | 3% | 13% |  |  | 
9 | O=C(c1cccc(Br)c1)N1CCC(N2CCC2)CC1 | 20% |  |  |  | 
10 | O=C(O)c1cccc(C(=O)N2CCC(N3CCCC3)CC2)c1 | 4% |  |  |  | 
11 | O=C(c1cccc(Br)c1)N1CCC(N2CCCC2)CC1 | 44% |  | 106% | 124% | inactive
12 | O=C(c1cccc(Br)c1)N1CCC(C2CCCN2)CC1 (centres undefined) |  | 52% |  |  | 
